Reference: patent US9556191B2, “Aminoquinazoline derivatives and their salts and methods of use thereof” (SUNSHINE LAKE PHARMA CO., LTD, priority 2013, dated 2017)

How the values were obtained:
[1] = molecular target: HER2 (human epidermal growth factor receptor 2) (Homo sapiens (Human), UniProt P04626); assay: In vitro kinase inhibitory activity, HER-2; type: biochemical
Procedure: (§1) Stop buffer was prepared from 100 mM HEPES, pH 7.5, 0.015% Brij-35, 0.2% Coating Reagent #3, and 50 mM EDTA.
Kinase reaction was performed according to the following procedures: (1) 2.5× kinase solution was prepared by adding kinase into 1× kinase base buffer; (2) 2.5× peptide solution was prepared by adding FAM-labeled peptide and ATP into 1× kinase base buffer; (3) 2.5× kinase solution (10 μL) was added to each well of the 384-well assay plate containing 5 μL of compound in 10% DMSO and then the assay plate was incubated at room temperature for 10 minutes; (4) 2.5× peptide solution (10 μL) was added to each well of the 384-well assay plate; and (5) stop buffer (25 μL) was added to stop the kinase reaction after incubation at 28° C. for a specified period of time. […]
(§2) Conversion data were copied, and then converted to inhibition values with the following formula: percent inhibition=(max−conversion)/(max−min)*100 where “max” stands for the DMSO control value, “conversion” stands for the sample value and “[…]” stands for the no-kinase control value. The data were fitted in XLfit to obtain IC50 values.

[2] = Rat PK (pharmacokinetics after iv and po administration); type: in vivo; conditions: male, SD, plasma; for Vd: read-out: Vss; for bioavailability: po 5 vs iv 2 (g/kg [sic]; mg/kg in method), read-out: F (bioavailability)
Excerpt: Materials used include Propranolol (internal standard), methyl alcohol, ammonium acetate, K2EDTA (potassium ethylenediaminetetraacetate), methane acid, acetonitrile, MTBE (methyl tert-butyl ether), Cremophor EL (polyoxyethylated castor oil), KolliphorHS 15 (polyethylene glycol 12-hydroxystearate), DMSO (dimethylsulfoxide), PEG400 (polyethylene glycol 400) and SD rat (male, 180-220 g, 7-8 weeks old, purchased from Hunan Slack King of Laboratory Animal Co., Ltd.), all of which are commercially available.
Each test compound prepared in above examples was completely dissolved in a mixture of 5% DMSO, 5% KolliphorHS 15 and 90% saline.
(1) The test sample stock solution was prepared by dissolving an accurately weighed test sample in DMSO followed by dilution to the concentration of 1 mg/mL with acetonitrile. The stock solution was stored under the condition of −20° C. for later use.
(2) Internal standard solution was prepared by diluting a certain amount of the Propranolol stock solution in the concentration of 1 mg/mL to 100 ng/mL with water.
Samples treated with liquid-liquid extraction and chromatographic separation were analyzed by triple quadrupole tandem mass spectrometer in multiple reaction monitoring (MRM) mode for quantitative analysis.
Pretreatment of plasma sample was performed according to the following procedures: (1) plasma sample (30 μL) was precisely measured, and internal standard (250 μL) was then added to the plasma sample which was then mixed by vortexing; (2) the sample was extracted once with 1 mL of MTBE and then centrifuged at 13000 rpm for 2 minutes at 4° C.; (3) supernatant (800 μL) was aspirated and dried with 96 holes nitrogen gas blowing; (4) the residue was dissolved with 150 μL of a mixture of methanol and water (v/v=1/1) and then mixed by vortexing; and (5) sampling: sample quantity was 8 μL.
Preparation of standard sample was performed according to the following procedures: (1) a pre-determined amount of the compound stock solution was precisely measured, and then was diluted to standard series of solution with acetonitrile; (2) each of the standard solution (20 μL) prepared above was precisely measured and to each was added 180 μL of blank plasma; (3) each sample was mixed by vortexing to obtain series of standard samples in which the plasma concentration was 3, 5, 10, 30, 100, 300, 1000, 3000, 5000 or 10000 ng/mL; and (4) standard curve was established.
The content of each test compound in rat plasma after administration was determined by LC/MS/MS.
Noncompartmental analysis to calculate pharmacokinetic parameters was performed with WinNonlin 6.1 software.

[3] = molecular target: EGFR (human epidermal growth factor receptor) (Homo sapiens (Human), UniProt P00533); assay: In vitro kinase inhibitory activity, EGFR; type: biochemical
Procedure: as §1
(§3) Kinase reaction was performed according to the following procedures: (1) 2.5× kinase solution was prepared by adding kinase into 1× kinase base buffer; (2) 2.5× peptide solution was prepared by adding FAM-labeled peptide and ATP into 1× kinase base buffer; (3) 2.5× kinase solution (10 μL) was added to each well of the 384-well assay plate containing 5 μL of compound in 10% DMSO and then the assay plate was incubated at room temperature for 10 minutes; (4) 2.5× peptide solution (10 μL) was added to each well of the 384-well assay plate; and (5) stop buffer (25 μL) was added to stop the kinase reaction after incubation at 28° C. for a specified period of time.
(§4) Multifunctional microplate reader (BMG LABTECH, PHER Astar FS) with a 320 nm excitation wavelength was used to read and collected the data of by absorbing light at […], which was converted from the rate of 665 signal/620 signal.
as §2

[4] = molecular target: EGFR T790M (human epidermal growth factor receptor T790M mutation) (Homo sapiens (Human), UniProt P00533, T790M); assay: In vitro kinase inhibitory activity, EGFR T790M; type: biochemical
Procedure: as §1, §3, §4, §2

[5] = iv(2 g/kg) [sic], method says 2 mg/kg
[6] = po(5 g/kg) [sic], method says 5 mg/kg

HER2 (human epidermal growth factor receptor 2), sequence (P04626 23-1255): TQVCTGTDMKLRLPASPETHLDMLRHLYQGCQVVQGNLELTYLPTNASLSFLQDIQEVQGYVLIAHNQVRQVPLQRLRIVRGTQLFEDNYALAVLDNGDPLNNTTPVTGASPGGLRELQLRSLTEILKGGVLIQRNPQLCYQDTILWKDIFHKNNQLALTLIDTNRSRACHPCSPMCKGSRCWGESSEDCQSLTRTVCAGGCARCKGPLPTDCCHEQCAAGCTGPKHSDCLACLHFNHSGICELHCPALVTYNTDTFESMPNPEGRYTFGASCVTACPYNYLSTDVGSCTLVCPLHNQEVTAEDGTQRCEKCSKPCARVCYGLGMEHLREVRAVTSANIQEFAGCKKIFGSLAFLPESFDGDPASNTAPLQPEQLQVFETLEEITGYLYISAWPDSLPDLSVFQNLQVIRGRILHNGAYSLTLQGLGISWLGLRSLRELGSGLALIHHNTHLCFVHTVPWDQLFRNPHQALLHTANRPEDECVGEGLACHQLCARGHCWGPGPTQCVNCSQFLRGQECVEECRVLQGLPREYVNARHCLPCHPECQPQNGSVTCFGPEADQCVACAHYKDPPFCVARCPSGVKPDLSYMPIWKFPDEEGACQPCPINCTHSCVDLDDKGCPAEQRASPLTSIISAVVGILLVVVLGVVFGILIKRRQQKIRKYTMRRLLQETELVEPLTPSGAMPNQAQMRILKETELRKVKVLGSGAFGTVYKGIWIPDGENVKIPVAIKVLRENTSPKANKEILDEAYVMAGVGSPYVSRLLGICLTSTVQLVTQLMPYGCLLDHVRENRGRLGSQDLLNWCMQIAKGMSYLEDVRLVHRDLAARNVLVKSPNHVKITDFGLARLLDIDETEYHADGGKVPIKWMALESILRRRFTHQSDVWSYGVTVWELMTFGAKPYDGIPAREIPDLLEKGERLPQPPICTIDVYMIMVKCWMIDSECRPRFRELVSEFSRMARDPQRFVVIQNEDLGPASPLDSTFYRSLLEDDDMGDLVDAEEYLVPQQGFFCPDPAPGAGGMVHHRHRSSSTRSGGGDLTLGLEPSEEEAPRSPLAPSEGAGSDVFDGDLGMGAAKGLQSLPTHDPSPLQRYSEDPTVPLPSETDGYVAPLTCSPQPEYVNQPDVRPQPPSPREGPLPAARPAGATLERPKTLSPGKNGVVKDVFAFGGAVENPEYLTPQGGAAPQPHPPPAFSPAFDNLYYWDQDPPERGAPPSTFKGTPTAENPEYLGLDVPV
EGFR T790M (human epidermal growth factor receptor T790M mutation), sequence (P00533 25-1210 T790M): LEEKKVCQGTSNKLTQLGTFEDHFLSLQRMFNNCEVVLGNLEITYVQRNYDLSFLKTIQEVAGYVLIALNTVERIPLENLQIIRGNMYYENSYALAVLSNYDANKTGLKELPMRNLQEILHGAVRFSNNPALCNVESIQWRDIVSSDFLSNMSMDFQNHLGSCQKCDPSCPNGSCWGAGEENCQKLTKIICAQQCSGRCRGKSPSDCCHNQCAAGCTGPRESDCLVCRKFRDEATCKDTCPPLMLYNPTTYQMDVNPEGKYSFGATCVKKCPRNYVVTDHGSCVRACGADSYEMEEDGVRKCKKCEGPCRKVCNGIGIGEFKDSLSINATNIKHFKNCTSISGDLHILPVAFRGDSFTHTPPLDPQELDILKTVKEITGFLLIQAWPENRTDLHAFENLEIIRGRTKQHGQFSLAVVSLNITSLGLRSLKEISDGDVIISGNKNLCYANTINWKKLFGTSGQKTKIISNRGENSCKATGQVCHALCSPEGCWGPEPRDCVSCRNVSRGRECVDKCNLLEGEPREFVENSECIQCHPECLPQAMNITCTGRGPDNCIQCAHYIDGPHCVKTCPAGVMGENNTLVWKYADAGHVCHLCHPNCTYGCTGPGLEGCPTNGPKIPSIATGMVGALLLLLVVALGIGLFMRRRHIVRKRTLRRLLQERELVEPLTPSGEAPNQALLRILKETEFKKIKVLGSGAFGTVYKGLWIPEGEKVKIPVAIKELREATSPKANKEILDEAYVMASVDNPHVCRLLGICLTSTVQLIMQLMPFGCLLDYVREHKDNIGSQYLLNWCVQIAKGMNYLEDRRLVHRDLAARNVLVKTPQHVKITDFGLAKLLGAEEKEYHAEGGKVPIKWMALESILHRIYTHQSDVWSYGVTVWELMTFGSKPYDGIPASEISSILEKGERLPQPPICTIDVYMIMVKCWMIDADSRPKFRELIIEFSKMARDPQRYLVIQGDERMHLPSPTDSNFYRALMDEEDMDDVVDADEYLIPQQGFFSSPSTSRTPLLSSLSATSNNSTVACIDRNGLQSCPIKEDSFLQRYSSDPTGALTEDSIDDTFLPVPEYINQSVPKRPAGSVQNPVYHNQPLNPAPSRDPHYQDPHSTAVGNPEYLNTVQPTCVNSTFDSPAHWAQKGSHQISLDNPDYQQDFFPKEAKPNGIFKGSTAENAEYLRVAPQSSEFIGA
EGFR (human epidermal growth factor receptor), sequence (P00533 25-1210): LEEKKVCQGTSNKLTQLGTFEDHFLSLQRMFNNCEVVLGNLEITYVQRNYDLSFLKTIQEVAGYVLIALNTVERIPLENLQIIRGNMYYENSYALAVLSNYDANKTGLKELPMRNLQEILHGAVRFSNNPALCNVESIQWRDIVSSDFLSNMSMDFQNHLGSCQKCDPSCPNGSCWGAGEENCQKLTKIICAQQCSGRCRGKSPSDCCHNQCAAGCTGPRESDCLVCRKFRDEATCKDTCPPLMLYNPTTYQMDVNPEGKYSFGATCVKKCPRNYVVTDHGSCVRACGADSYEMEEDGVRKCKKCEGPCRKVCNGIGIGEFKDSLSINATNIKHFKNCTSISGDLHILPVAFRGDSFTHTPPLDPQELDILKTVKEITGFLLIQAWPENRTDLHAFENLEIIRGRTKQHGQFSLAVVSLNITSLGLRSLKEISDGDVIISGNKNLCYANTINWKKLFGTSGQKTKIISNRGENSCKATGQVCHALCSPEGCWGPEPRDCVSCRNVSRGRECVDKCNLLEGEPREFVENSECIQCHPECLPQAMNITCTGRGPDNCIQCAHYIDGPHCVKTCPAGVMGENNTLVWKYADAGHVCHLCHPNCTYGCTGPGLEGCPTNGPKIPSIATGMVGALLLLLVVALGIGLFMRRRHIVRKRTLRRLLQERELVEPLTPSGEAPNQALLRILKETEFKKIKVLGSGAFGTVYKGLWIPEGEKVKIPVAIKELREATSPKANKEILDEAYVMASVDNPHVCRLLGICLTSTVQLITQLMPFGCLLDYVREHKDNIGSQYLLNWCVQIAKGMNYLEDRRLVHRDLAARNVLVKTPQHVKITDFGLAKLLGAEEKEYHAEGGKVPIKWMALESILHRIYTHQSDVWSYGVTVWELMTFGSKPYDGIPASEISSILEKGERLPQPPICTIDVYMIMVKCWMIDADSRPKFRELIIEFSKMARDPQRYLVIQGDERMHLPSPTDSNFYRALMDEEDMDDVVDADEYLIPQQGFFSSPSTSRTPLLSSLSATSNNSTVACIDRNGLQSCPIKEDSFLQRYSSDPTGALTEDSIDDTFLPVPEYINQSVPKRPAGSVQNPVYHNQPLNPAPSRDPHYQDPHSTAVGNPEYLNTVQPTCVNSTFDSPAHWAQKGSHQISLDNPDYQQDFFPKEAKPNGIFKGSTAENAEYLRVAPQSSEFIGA

SMILES	IC50 [1] [nM]	AUC(0-t) [2, 5] [ng·h/mL]	Cmax [2, 5] [ng/mL]	half-life [2, 5] [h]	Vd [2, 5] [L/kg]	bioavailability [2] [%]	AUC(0-t) [2, 6] [ng·h/mL]	Cmax [2, 6] [ng/mL]	half-life [2, 6] [h]	IC50 [3] [nM]	IC50 [4] [nM]
COc1cc2ncnc(Nc3ccc(OCc4ccccn4)c(Cl)c3)c2cc1NC(=O)/C=C/CN1C[C@@H]2OCCO[C@@H]2C1 [Example 23, (E)-N-(4-((3-Chloro-4-(pyridin-2-ylmethoxy)phenyl)amino)-7-methoxyquinazolin-6-yl)-4-((4 aR,7aS)tetrahydro-2H-[1,4]dioxino[2,3-c]pyrrol-6(3H)-yl)but-2-enamide]	1.8	7560	2770	3.06	0.88	73.5	13900	1930	2.77	60.4	8.5
O=C(/C=C/CN1C[C@@H]2OCCO[C@@H]2C1)Nc1cc2c(Nc3ccc(Cl)c(Cl)c3F)ncnc2cc1O[C@H]1CCOC1 [Example 34, (E)-N-(4-((3,4-Dichloro-2-fluorophenyl)amino)-7-(((S)-tetrahydrofuran-3-yl)oxy)quinazolin-6-yl)-4-((4aR,7aS)-tetrahydro-2H-[1,4]dioxino[2,3-c]pyrrol-6(3H)-yl)but-2-enamide]	20.3	951	645	1.15	3.18	68.7	1550	378	1.4	3.3	7
CCOc1cc2ncnc(Nc3ccc4c(cnn4Cc4cccc(F)c4)c3)c2cc1NC(=O)/C=C/CN1C[C@@H]2OCCO[C@@H]2C1 [Example 28, (E)-N-(7-Ethoxy-4-((1-(3-fluorobenzyl)-1H-indazol-5-yl)amino)quinazolin-6-yl)-4-((4aR,7aS)-tetrahydro-2H-[1,4]dioxino[2,3-c]pyrrol-6(3H)-yl)but-2-enamide]	1.6	692	450	1.99	6.66	41.5	721	147	1.41	40.1	14.5
COc1cc2ncnc(Nc3ccc4c(cnn4Cc4cccc(F)c4)c3)c2cc1NC(=O)/C=C/CN1C[C@@H]2OCCO[C@@H]2C1 [Example 27, (E)-N-(4-((1-(3-Fluorobenzyl)-1H-indazol-5-yl)amino)-7-methoxyquinazolin-6-yl)-4-((4aR,7aS)-tetra hydro-2H-[1,4]dioxin[2,3-c]pyrrol-6(3H)-yl)but-2-enamide]	2.2	1190	923	1.97	3.65	10.8	303	67.8	2.33	7.9	22.9
O=C(/C=C/CN1C[C@@H]2OCCO[C@@H]2C1)Nc1cc2c(Nc3ccc(OCc4ccccn4)c(Cl)c3)ncnc2cc1O[C@H]1CCOC1 [Example 25, (E)-N-(4-((3-Chloro-4-(pyridin-2-ylmethoxy)phenyl)amino)-7-(((S)-tetrahydrofuran-3-yl)oxy)quinazolin-6-yl)-4-((4aR,7aS)-tetrahydro-2H-[1,4]dioxino[2,3-c]pyrrol-6(3H)-yl)but-2-enamide]	2.5	4530	4110	1.42	0.65	5.94	474	73	4.42	8.6	5.9
CCOc1cc2ncnc(Nc3ccc(Cl)c(Cl)c3F)c2cc1NC(=O)/C=C/CN1C[C@@H]2OCCO[C@@H]2C1 [Example 32, (E)-N-(4-((3,4-Dichloro-2-fluorophenyl)amino)-7-ethoxyquinazolin-6-yl)-4-((4aR,7aS)-tetrahydro-2H-[1,4]dioxino[2,3-c]pyrrol-6(3H)-yl)but-2-enamide]	7	2170	1000	2.95	2.97	108	6220	748	2.97	1.2	4
CCOc1cc2ncnc(Nc3ccc(OCc4ccccn4)c(Cl)c3)c2cc1NC(=O)/C=C/CN1C[C@@H]2OCCO[C@@H]2C1 [Example 24, (E)-N-(4-((3-Chloro-4-(pyridin-2-ylmethoxy)phenyl)amino)-7-ethoxyquinazolin-6-yl)-4-((4aR,7aS)-tetrahydro-2H-[1,4]dioxino[2,3-c]pyrrol-6(3H)-yl)but-2-enamide]	1.7	10500	2930	3.59	0.79	87.1	22900	2770	3.49	18.4	4.2
